# Entries after “also recorded” stand apart in the source; their conditions may differ.
# Columns and labels:
# Igfbp2−/− COBs and BMSCs = test: In vitro osteoblastogenesis of calvarial osteoblasts and bone marrow stromal cells (ALP, Alizarin Red staining); type: cell-based, mouse
# Description: FIG. 1. The heparin-binding domain of IGFBP2 enhances osteoblastogenesis in vitro. a. Von Kossa staining was performed using tibia from 8 weeks old Igfbp2^+/+ and Igfbp2^−/− male mouse. b. Calvarial osteoblasts (COBs) were harvested from day 7 old male Igfbp2^+/+ and Igfbp2^−/− male mouse, and treated with osteogenic media in the presence of 2.5% FCS. At day 7, alkaline phosphatase (ALP) staining was performed. c and d. COBs and Bone marrow stromal cells (BMSCs) from Igfbp2^−/− mouse were treated with osteogenic media with pegylated heparin-binding domain peptide (PEG-HBD) in the presence of 10% FCS. ALP staining (day 7) and Alizarin Red staining (day 14) were performed (c). RNA was isolated at day 14 from BMSCs and expression of ALP, osteocalcin (OC) and Runx2 was analyzed by real-time PCR. Figures shown represent at least 3 independent experiments (n=3). Statistical difference was analyzed by student's t test. *; p<0.05.
# FIG. 7. […] Igfbp2^−/− calvarial osteoblasts (COBs) were cultured with osteogenic media with PBS, control peptide (2 μg/ml) or heparin binding domain peptide (HBD-peptide) (2 μg/ml). Osteoblastogenesis was evaluated by Alizarin Red staining.
# Neonatal calvarial osteoblasts were collected from 7-10 day old mice as previously described^53. Briefly, calvariae were digested 5 times with collagenase P and Trypsin. Cells released from digests 2 through 5 were collected as primary calvarial osteoblasts, and maintained in DMEM supplemented with 10% FCS and non-essential amino acids. Osteoblastogenesis of primary calvarial osteoblasts was carried out by treating cells with 4 mM β-glycerophosphate and 50 μg/ml ascorbic acid in αMEM. Bone marrow stromal cells (BMSCs) were harvested from femurs and tibias of 8 weeks old mice as described previously^10. Osteoblastogenesis of BMSCs was induced by the treatment with osteogenic media consisting of αMEM containing 10% FCS, 8 mM β-glycerophosphate, and 50 μg/ml ascorbic acid.
# metacarpals = test: Metacarpal culture ex vivo (calcein incorporated area, length, width); type: cell-based, mouse
# Description: FIG. 2. The heparin binding domain of IGFBP2 enhances periosteal expansion of metacarpals ex vivo. Metacarpals were collected from day 1 male mouse, and treated with osteogenic media with IGFBP2 (200 ng/ml) or the heparin-binding domain peptide (HBD-peptide) (2 μg/ml) in the presence or absence of IGF-1 (20 ng/ml) for 10 days. Bones were labeled with calcein (500 ng/ml) and calcein incorporated area was visualized (a) and longitudinal length of calcein incorporated area was quantified (b). Alcian blue and Von Kossa double staining was performed (c) and length and width of metacarpals were quantified (d). Statistical difference was analyzed by ANOVA followed by Bonferroni post-hoc test. Figures shown represent at least 3 independent experiments. Values are expressed as the mean±SEM (n=3-4). ^a; <0.05 vs PBS, ^b; <0.01 vs PBS, ^c; <0.001 vs PBS, ^d; <0.01 vs HBD, ^e; <0.05 vs IGF-I, ^f; <0.05 vs HBD.
# Metacarpals were isolated from Igfbp2^−/− mice at 1-day old and incubated in DMEM containing 0.5% BSA, 50 μg/ml ascorbic acid and 1 mM β-glycerol phosphate for 10 days^54. Stimulants were added to culture media from day 1. At day 10, metacarpals were incubated in media containing calcein (500 ng/ml) for 2 hours for staining of calcium deposition, and images were obtained. Then, bones were fixed with 4% PFA, embedded in paraffin, and processed for Alcian blue and von Kossa double staining.
# Igfbp2−/− mice = test: MicroCT of femurs and vertebrae (L5) after in vivo treatment of Igfbp2−/− mice; set-up: species or system mouse; details: in vivo administration, summary statement
# Description: Igfbp2^+/+ and Igfbp2^−/− mice were administered with PBS or PEG-HBD-peptide (50 μg/day) intraperitoneally 5 times per week from 6 to 9 weeks of age. Dual-energy x-ray absorptiometry was performed before the initiation of treatment. Mice were injected with 20 mg/kg calcein intraperitoneally 7 days and 2 days before sample collection.
# Microarchitecture of distal trabecular bone and midshaft cortical bone was analyzed with femurs and vertebrae (L5) by MicroCT (MicroCT40)^10. Approximately 100 slices were measured just proximal to the distal growth plate, with an isotropic pixel size of 12 μm and slice thickness of 12 μm. Midshaft cortical bone thickness was analysis in a similar fashion using approximately 18 slices obtained at the exact midpoint of the femur.
# IGFBP-2 knockout mice [1] = test: Body weight and fat mass of IGFBP-2 knockout mice given the heparin binding peptide; type: in vivo, mouse; details: IGFBP-2 −/− mice, 50 mcg intraperitoneally three days per week, 6 week treatment; for Fat Mass: by MRI
# Description: Further experiments have been carried out in which the knockout mice and control animals have been administered the mouse homologue of the heparin binding peptide. The peptide was administered to 8 animals in each group. The knockout animals weighed 30.4±1.5 gm whereas the control animals weighed 25.2±1.1 gm. The knockout animals that received the active peptide weighed 24.9±1.3 gm. […] More importantly when absolute fat mass was analyzed by MRI, highly significant differences were also present. The knockout mice had 6.21±0.76 grams of fat. The control mice had 3.82±0.67 grams and the knockout mice administered the heparin binding peptide had 3.67±0.36 grams. Again these are highly significant differences.
# IGFBP-2 knockout mice [2] = test: Glucose tolerance test in IGFBP-2 knockout mice; type: in vivo, mouse; details: knockout animals with impaired glucose tolerance; not significantly different from control mice
# BP2−/− mice = test: Flow cytometry of white blood cell populations in peripheral blood; type: in vivo, mouse; details: BP2−/− male mice, intraperitoneal injection, vs PBS injected controls
# [3] = listed as heparin binding peptide
sequence,measurement,setting,value
KHLSLEEPKKLRP (IGFBP-2 heparin binding domain-containing peptide sequence) [HBD-peptide],mineralization of Igfbp2−/− COBs (Alizarin Red) compared to PBS,"Igfbp2−/− COBs and BMSCs; 2 μg/ml, osteogenic media",fully active
same,"cell proliferation of osteoblasts and bone marrow stromal cells (alkaline phosphatase, alizarin red staining)",Igfbp2−/− COBs and BMSCs; compared to full length (FL) IGFBP-2 and control peptide,increased cell proliferation
same,bone mineralization phenotype of Igfbp2−/− bone marrow stromal cells and calvarial osteoblasts,"Igfbp2−/− COBs and BMSCs; in vitro, summary statement",rescued the low bone mineralization phenotype
same,calcein incorporated area of metacarpals,"metacarpals; 10 days, IGFBP2 200 ng/ml, peptides 2 μg/ml, IGF-1 20 ng/ml, vs PBS",significantly enhanced
same,width (and length) of metacarpals,"metacarpals; 10 days, IGFBP2 200 ng/ml, peptides 2 μg/ml, vs PBS",increased the width of metacarpals
same,periosteal expansion and growth of Igfbp2−/− metacarpal explants,"metacarpals; ex vivo, summary statement",stimulated periosteal expansion and growth
same,"bone mass phenotype of Igfbp2−/− mice (trabecular bone mass, osteoblast number)",Igfbp2−/− mice,rescued the low bone mass phenotype
same,"bone mass phenotype of Igfbp2−/− mice (trabecular bone mass, osteoblast number)",Igfbp2−/− mice; listed as HBD,trabecular bone mass was rescued and osteoblast number increased
same,Fat Mass,IGFBP-2 knockout mice [1]; listed as HBD,3.67 ± 0.36 gms
same,Fat Mass,IGFBP-2 knockout mice [1]; [3],3.67±0.36 gms
same,Body Weight,IGFBP-2 knockout mice [1]; listed as HBD,24.9 ± 1.3 gms
same,Body Weight,IGFBP-2 knockout mice [1]; [3],24.9±1.3 gms
same,glucose tolerance,IGFBP-2 knockout mice [2],significantly improved
same,"percentages of differentiated lymphoid and myeloid cells (monocytes, macrophages, neutrophils) in peripheral blood",BP2−/− mice; listed as HBD,"suppressed the percentages of mature monocytes, macrophages and neutrophils; also recorded: reduced the number of differentiated lymphoid and myeloid cells"
same,"percentages of differentiated lymphoid and myeloid cells (monocytes, macrophages, neutrophils) in peripheral blood",BP2−/− mice; listed as IGFBP-2 heparin binding domain (HBD) peptide,reduced the percentage of macrophages

# Source: patent US9220746B2, “Compounds and methods for treating bone disorders and controlling weight” (The University of North Carolina at Chapel Hill, priority 2009, dated 2015)
